Consider 13 compounds from US20260193250A1, “TOLL-LIKE RECEPTOR 7 AGONISTS AS IMMUNE-STIMULATORS TO ELICIT THE INNATE ANTITUMOR IMMUNITY” (Merck Patent GmbH, priority 2022, published 2026).

Structures are written as SMILES.

One test addresses T1, hTLR7 (Homo sapiens, UniProt Q9NYK1).
T1 construct: host or cells: HEK-Blue hTLR7 (HEK293-derived SEAP reporter cells)
T1 sequence (Q9NYK1 27-1049): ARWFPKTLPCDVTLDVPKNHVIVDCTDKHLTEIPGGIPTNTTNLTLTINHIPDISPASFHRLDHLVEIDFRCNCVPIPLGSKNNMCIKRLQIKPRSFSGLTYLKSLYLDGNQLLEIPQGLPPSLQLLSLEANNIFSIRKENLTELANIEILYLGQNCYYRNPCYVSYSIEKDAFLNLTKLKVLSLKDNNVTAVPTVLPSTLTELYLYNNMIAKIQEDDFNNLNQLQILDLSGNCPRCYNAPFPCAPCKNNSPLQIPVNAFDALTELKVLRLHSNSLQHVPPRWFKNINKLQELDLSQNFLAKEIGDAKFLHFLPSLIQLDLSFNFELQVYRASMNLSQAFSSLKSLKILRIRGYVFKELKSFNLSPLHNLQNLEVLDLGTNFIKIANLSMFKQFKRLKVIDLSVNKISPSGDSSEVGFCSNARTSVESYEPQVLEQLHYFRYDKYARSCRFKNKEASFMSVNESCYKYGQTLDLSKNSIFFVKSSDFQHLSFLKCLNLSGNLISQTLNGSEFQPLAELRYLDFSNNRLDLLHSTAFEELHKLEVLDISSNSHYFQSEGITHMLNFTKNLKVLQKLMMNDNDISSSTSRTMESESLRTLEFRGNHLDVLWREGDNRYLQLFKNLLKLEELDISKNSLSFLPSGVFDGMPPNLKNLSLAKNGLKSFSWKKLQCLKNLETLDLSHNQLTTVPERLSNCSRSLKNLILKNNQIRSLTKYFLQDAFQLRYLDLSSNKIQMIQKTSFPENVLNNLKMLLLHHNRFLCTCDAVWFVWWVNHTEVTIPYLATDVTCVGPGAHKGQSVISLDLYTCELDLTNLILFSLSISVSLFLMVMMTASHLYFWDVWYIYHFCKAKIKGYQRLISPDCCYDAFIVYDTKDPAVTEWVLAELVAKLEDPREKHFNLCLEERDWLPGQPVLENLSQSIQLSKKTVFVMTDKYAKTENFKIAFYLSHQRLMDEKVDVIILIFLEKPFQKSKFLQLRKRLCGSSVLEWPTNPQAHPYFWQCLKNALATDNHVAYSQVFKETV
In words: TLR7 reporter assay in HEK-Blue cells (SEAP, Quanti-Blue). It counts as cell-based. The settings on record: 24 hours incubation, SEAP absorbance at 620 nm. As to the method: (§1) HEK-Blue™ TLR7 and TLR8 cell lines were obtained from InvivoGen (San Diego, CA, USA). HEK-Blue cells were cultured in DMEM medium hi glucose (Gibco-10569010) supplemented with 10% HI-FBS (Aus origin) (Gibco-10100-147), 1% penicillin/streptomycin (Gibco-15140-122-100 ml) as per manufacturer's recommendation. In addition, specific antibiotic mixtures were added to the culture. 100 μg/ml Zeocin (11006-33-0), 10 μg/ml Blasticidin (ant-bl-05), 50 μg/ml Normocin (ANT-NR-1-500 MG) for HEK-Blue™ hTLR7 and 100 μg/ml Zeocin, 30 μg/ml Blasticidin, 50 μg/ml Normocin for HEK-Blue™ hTLR8 cells (all from InvivoGen).
(§2) All the compounds were prepared in 100% DMSO (Sigma-D2650). The compounds were serially diluted in 100% DMSO (3 fold) up to 10 point dose response curve starting with 30 μM; final concentration of DMSO in the plate was 0.3%. Resiquimod and TL8-506 (InvivoGen-tlrl-t18506) were used as controls. 0.3% DMSO and 10 μM Resiquimod were used as min and max respectively, and % activation was calculated using following formula:
(§3) % Activation: {100−(max absorbance−absorbance)/(max absorbance−min absorbance)}×100.
(§4) For stimulation with TLR7/8 agonists, cells were resuspended in complete media and 40 μl of cell suspension (10,000 cells/well) was seeded on day 1 in 384 well assay plate (Thermo Scientific™ Nunc-164688) having pre-dispensed compounds with Echo Liquid handler. The plate was spun at 100 g for 1 min to settle down the cells and incubated at 37° C. with 5% CO2 for 24 hours. For measuring production of SEAP after 24 hrs of incubation, 10 μl of Quanti-Blue™ solution (InvivoGen rep-qbs2) prepared according to manufacturer's instructions was added in dark to the assay plate and incubated at 37° C. with 5% CO2 for 30 min. Post incubation, the absorbance was measured at 620 nm in Tecan spark (Spark control Magellan). EC50 were determined using Graph Pad Prism Statistical software (Version 7.05), with individual data points represent the absorbance values of duplicates.
For orientation: Reporter assays use an easily measured gene product as a stand-in for the process of interest.

The target in another test is T2, hTLR8 (Homo sapiens, UniProt Q9NR97).
T2 construct: host or cells: HEK-Blue hTLR8 (HEK293-derived SEAP reporter cells)
T2 sequence (Q9NR97 27-1041): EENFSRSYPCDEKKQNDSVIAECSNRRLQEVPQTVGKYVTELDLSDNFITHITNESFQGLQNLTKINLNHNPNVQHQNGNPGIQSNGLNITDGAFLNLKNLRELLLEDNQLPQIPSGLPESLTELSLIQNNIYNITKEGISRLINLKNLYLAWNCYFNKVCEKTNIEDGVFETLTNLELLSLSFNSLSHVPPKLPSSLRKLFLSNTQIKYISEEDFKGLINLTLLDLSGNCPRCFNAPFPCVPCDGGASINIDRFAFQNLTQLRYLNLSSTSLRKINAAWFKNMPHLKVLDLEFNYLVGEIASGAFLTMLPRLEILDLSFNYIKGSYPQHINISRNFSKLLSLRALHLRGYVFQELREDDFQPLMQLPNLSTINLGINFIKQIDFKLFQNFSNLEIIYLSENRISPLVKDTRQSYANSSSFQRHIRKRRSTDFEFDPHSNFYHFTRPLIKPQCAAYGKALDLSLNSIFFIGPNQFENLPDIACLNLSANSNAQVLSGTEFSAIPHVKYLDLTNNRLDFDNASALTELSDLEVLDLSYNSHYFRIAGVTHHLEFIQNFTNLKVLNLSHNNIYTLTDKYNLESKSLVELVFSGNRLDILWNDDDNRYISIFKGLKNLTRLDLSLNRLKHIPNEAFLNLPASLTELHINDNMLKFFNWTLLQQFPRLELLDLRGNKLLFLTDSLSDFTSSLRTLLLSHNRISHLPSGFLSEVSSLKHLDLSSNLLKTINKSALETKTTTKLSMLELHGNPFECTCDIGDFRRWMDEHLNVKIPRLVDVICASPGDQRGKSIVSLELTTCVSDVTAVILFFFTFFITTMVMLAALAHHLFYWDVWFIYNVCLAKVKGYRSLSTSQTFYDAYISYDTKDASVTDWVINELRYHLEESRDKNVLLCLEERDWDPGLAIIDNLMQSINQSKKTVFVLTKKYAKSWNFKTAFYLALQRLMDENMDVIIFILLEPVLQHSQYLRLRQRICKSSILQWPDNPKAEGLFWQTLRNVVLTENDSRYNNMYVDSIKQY
In words: TLR8 reporter assay in HEK-Blue cells (SEAP, Quanti-Blue). It counts as cell-based. The settings on record: 24 hours incubation, SEAP absorbance at 620 nm. As to the method: as §1, §2, §3, §4

In the case of `CCOCc1nc2c(N)nc3ccccc3c2n1CC(C)(C)OCCCN1CCN(C)CC1` [Example 2], the results for the EC50 on hTLR7 and at hTLR8 were 10 to 100 nM and 1000 to 10000 nM, respectively.
The matching figures for `CCOCc1nc2c(N)nc3ccccc3c2n1CC(C)(C)OCCCCN1CCN(C)CC1` [Example 3]: below 10 nM and 1000 to 10000 nM.
The matching figures for `CCOCc1nc2c(N)nc3ccccc3c2n1CC(C)(C)OCCCCCN1CCN(C)CC1` [Example 4]: below 10 nM and 100 to 1000 nM.
Consider `CCOCc1nc2c(N)nc3ccccc3c2n1CC(C)(C)OCCCCN1CCOCC1` [Example 7], for which the EC50 on hTLR7 fell in the range of 10 to 100 nM; at hTLR8, 100 to 1000 nM.
Take `CCOCc1nc2c(N)nc3ccccc3c2n1CC(C)(C)OCCCCN1CCCCC1` [Example 8]: the EC50 was 10 to 100 nM on hTLR7 and 1000 to 10000 nM on hTLR8.
With `CCOCc1nc2c(N)nc3ccccc3c2n1CC(C)(C)OCCCCN1CCCC1` [Example 9], the EC50 at hTLR7 lay within 10 to 100 nM; at hTLR8 it was 100 to 1000 nM.
The like results for `CCOCc1nc2c(N)nc3ccccc3c2n1CC(C)(C)OCCCCN1CCNCC1` [Example 10] were, in that order, 10 to 100 nM and 1000 to 10000 nM.
The like results for `CCOCc1nc2c(N)nc3ccccc3c2n1CC(C)(C)OCCCCN1CCN(CCN)CC1` [Example 11] were, in that order, 100 to 1000 nM and 1000 to 10000 nM.
The matching figures for `CCOCc1nc2c(N)nc3ccccc3c2n1CC(C)(C)OCCCCn1cc(CO)nn1` [Example 13]: 10 to 100 nM and above 10000 nM.
Consider `CCOCc1nc2c(N)nc3ccccc3c2n1CC(C)(C)OCCCCn1cc(CN)nn1` [Example 14], for which the EC50 at hTLR7 was in the range of 10 to 100 nM; at hTLR8 it was 1000 to 10000 nM.
The matching figures for `CCNCc1nc2c(N)nc3ccccc3c2n1CC(C)(C)OCCCCN1CCN(C)CC1` [Example 18]: 1000 to 10000 nM and above 10000 nM.
For the compound `CCOCc1nc2c(N)nc3ccccc3c2n1CC(C)(C)OC(=O)CN` [Example 19], the EC50 lay in the range of 100 to 1000 nM at hTLR7 and 10 to 100 nM on hTLR8.
The matching figures for `CCOCc1nc2c(N)nc3ccccc3c2n1CC(C)(C)OCCCCN1CCN(CC(C)(C)SC)CC1` [Example 27]: 10 to 100 nM and 1000 to 10000 nM.

The term EC50 denotes the concentration at which the effect is half-maximal. Read a low EC50 as an effect from little substance.
